Paper PMC11969996, “Minimalistic bis-triarylpyridinium cations: effective antimicrobials against bacterial and fungal pathogens” (RSC Medicinal Chemistry, 2025)
≈ marks a conversion by molar mass, not a printed value. Read-outs that look alike come from different tables or passages of the source.

Experiments:
C. albicans [1] = experiment: MIC by broth microdilution (EUCAST); assay type: cell-based, Candida albicans; details: overnight 37 °C, read-out: Minimum inhibitory concentration (MIC90) C. albicans
Experimental: (§1) The Gram-negative bacterial strain E. coli CECT 101 and P. aeruginosa ATCC 27853 were supplied by The Colección Española de Cultivos Tipo (CECT, Valencia, Spain) and the American Type Culture Collection (ATCC, Rockville, MD, USA). The Gram-positive bacterial strain S. aureus ATCC 25923, E. faecalis ATCC 29212 and the fungal strain C. albicans ATCC 1023 were supplied by The American Type Culture Collection (ATCC, Maryland, USA). Bacterial and yeast growth was carried out aerobically overnight at 35 °C in Mueller Hinton agar and Sabouraud dextrose agar, respectively (Scharlau, Spain).
(§2) The MIC of the compounds 1a–d, 2a–d, and 3a–d was determined by a broth microdilution method according to the EUCAST protocol. Briefly, 0.5 McFarland bacterial and fungal suspensions were prepared in Müeller Hinton broth (MHB) and Sabouraud dextrose broth (SDB) media, respectively. In a 96-well plate, serial dilutions of compounds 1a–d, 2a–d, 3a–d starting from 512 to 0 μg mL^−1 were made in MHB and SDB media, respectively. After incubation overnight at 37 °C, results were evaluated according to turbidity. Bacterial growth was determined by measuring absorbance at a wavelength of 600 nm and at 520 nm for fungi.[53–55]

P. aeruginosa = experiment: MIC by broth microdilution (EUCAST); assay type: cell-based; details: Pseudomonas aeruginosa, ATCC27853; P. aeruginosa ATCC 27853, MHB, overnight 37 °C; read-out: Minimum inhibitory concentration (MIC90) P. aeruginosa
Experimental: as §1, §2

E. coli [2] = experiment: MIC by broth microdilution (EUCAST); assay type: cell-based; details: Escherichia coli, CECT101; E. coli CECT 101, MHB, overnight 37 °C; read-out: Minimum inhibitory concentration (MIC90) E. coli
Experimental: as §1, §2

S. aureus [3] = experiment: MIC by broth microdilution (EUCAST); assay type: cell-based; details: Staphylococcus aureus, ATCC25923; S. aureus ATCC 25923, MHB, overnight 37 °C; read-out: Minimum inhibitory concentration (MIC90) S. aureus
Experimental: as §1, §2

E. faecalis = experiment: MIC by broth microdilution (EUCAST); assay type: cell-based, Enterococcus faecalis; details: E. faecalis ATCC 29212, MHB, overnight 37 °C, read-out: Minimum inhibitory concentration (MIC90) E. faecalis
Experimental: as §1, §2

red blood cells = experiment: Lysis (hemolysis) assay; assay type: cell-based; details: human erythrocytes, 1 hour, 37 °C, 1% DMSO
Experimental: The hemolysis test was performed following literature procedures.[14] Preparation of the erythrocyte suspension: human blood (6 mL) was transferred to a Falcon tube. The sample was then centrifuged at 10 000 rpm for 10 minutes. After centrifugation, the supernatant was discarded, and the cells were resuspended in 4 mL of 10 mM PBS. This centrifugation and resuspension process was repeated twice to remove plasma residues. Finally, the resulting cell suspension was diluted at a 1 : 20 ratio with 10 mM PBS. Hemolysis assay: a total of 500 μL of the prepared erythrocyte suspension was aliquoted into Eppendorf tubes according to the experimental conditions. The final DMSO concentration in each condition was adjusted to 1%. A 1% Triton™ X-100 solution was used as the positive control (100% hemolysis), while the negative control consisted of erythrocytes suspended in PBS with 1% DMSO (0% hemolysis). Samples were incubated at 37 °C with shaking at 200 rpm for 1 hour. Following incubation, the samples were centrifuged at 10 000 rpm for 10 minutes. Subsequently, 200 μL of the supernatant was collected and transferred to a 96-well plate. Absorbance was measured at 520 nm using a plate reader.

S. aureus [4] = details: cited from earlier work
E. coli [5] = details: cited from earlier work
C. albicans [6] = experiment: Mitochondrial membrane depolarization, DiOC6(3) staining, flow cytometry; assay type: cell-based, Candida albicans; details: 3.5 hours
C. albicans [7] = details: cited from earlier work
[8] = Candida albicans, ATCC1023, C. albicans ATCC 1023, SDB
[9] = Enterococcus faecalis, ATCC29212

| MIC90 (C. albicans [1]; [8]) [µM] | MIC90 (P. aeruginosa) [µM] | MIC90 (E. coli [2]) [µM] | MIC90 (S. aureus [3]) [µM] | MIC90 (E. faecalis; [9]) [µM] | MIC (C. albicans [1]; [8]) [µM] | MIC90 (C. albicans [1]; C. albicans ATCC 1023, SDB) [µM] | MIC90 (E. faecalis) [µM] | Molecule | Lysis20 (red blood cells) [µM] | MIC (S. aureus [4]) [µM] | MIC (E. coli [5]) [µM] | DiOC6(3) fluorescence intensity relative to control (C. albicans [6]; compound at 6 μM) | MIC (C. albicans [7]) [µM] | DiOC6(3) fluorescence intensity relative to control (C. albicans [6]; compound at 30 μM) |
| --- | --- | --- | --- | --- | --- | --- | --- | --- | --- | --- | --- | --- | --- | --- |
| > 103 | > 103 | > 103 | 13 | 13 |  |  |  | Brc1ccc(-c2cc(-c3ccccc3)cc(-c3ccc(Br)cc3)[n+]2CCCCCCCCCC[n+]2c(-c3ccc(Br)cc3)cc(-c3ccccc3)cc2-c2ccc(Br)cc2)cc1 [1c] | 27 |  |  |  |  |  |
|  | > 190 | > 380 | 48 | 24 | > 90 |  |  | CCC[n+]1c(-c2ccc(Br)cc2)cc(-c2ccc(Br)cc2)cc1-c1ccc(Br)cc1 [3d] | >256 |  |  |  |  |  |
| 178 | > 178 | 178 | 22 | 11 |  |  |  | CCCCCCCCCCCC[n+]1c(-c2ccc(Br)cc2)cc(-c2ccccc2)cc1-c1ccc(Br)cc1 [2c] | 26 |  |  |  |  |  |
| > 160 | > 160 | > 320 | 40 | 40 |  |  |  | CCCCCCCCCCCC[n+]1c(-c2ccc(Br)cc2)cc(-c2ccc(Br)cc2)cc1-c1ccc(Br)cc1 [2d] | 42 |  |  |  |  |  |
|  |  |  |  |  |  |  |  | benzalkonium chloride [BAC] |  | 4 | 63 |  |  |  |
| > 91 | > 91 | 46 | 11 | 6 |  | >91 | 6.0 | Brc1ccc(-c2cc(-c3ccc(Br)cc3)[n+](CCCCCCCCCC[n+]3c(-c4ccc(Br)cc4)cc(-c4ccc(Br)cc4)cc3-c3ccc(Br)cc3)c(-c3ccc(Br)cc3)c2)cc1 [1d] | >256 |  |  |  |  |  |
| 2.2 to 6.2 | 70 | 4.4 | 4.4 | 1.1 |  | 2.2 |  | c1ccc(-c2cc(-c3ccccc3)[n+](CCCCCCCCCC[n+]3c(-c4ccccc4)cc(-c4ccccc4)cc3-c3ccccc3)c(-c3ccccc3)c2)cc1 [1a] | 45 |  |  | about one-tenth |  |  |
| 118 | 30 | 7.6 | 7.6 | 1 |  |  |  | Brc1ccc(-c2cc(-c3ccccc3)[n+](CCCCCCCCCC[n+]3c(-c4ccccc4)cc(-c4ccc(Br)cc4)cc3-c3ccccc3)c(-c3ccccc3)c2)cc1 [1b] | 20 |  |  |  |  |  |
| > 248 | > 248 | > 496 | 31 | 124 |  |  |  | CCC[n+]1c(-c2ccccc2)cc(-c2ccc(Br)cc2)cc1-c1ccccc1 [3b] | >256 |  |  |  |  |  |
| > 293 | > 293 | > 585 | 146 | > 293 |  |  |  | CCC[n+]1c(-c2ccccc2)cc(-c2ccccc2)cc1-c1ccccc1 [3a] | >256 |  |  | normal DiOC6(3) accumulation |  |  |
|  |  |  |  |  |  |  |  | Cc1cc(N)c2ccccc2[n+]1CCCCCCCCCC[n+]1c(C)cc(N)c2ccccc21 [DQA, dequalinium chloride] |  | 2.4 | 121 |  | 5.5 |  |
| 2.2 to 6.2 | > 112 | 28 | 28 | 3.6 |  | 3.6 |  | CCCCCCCCCCCC[n+]1c(-c2ccccc2)cc(-c2ccccc2)cc1-c1ccccc1 [2a] | 31 |  |  |  |  |  |
| > 215 | > 215 | > 430 | 54 | 54 |  |  |  | CCC[n+]1c(-c2ccc(Br)cc2)cc(-c2ccccc2)cc1-c1ccc(Br)cc1 [3c] | >256 |  |  |  |  |  |
|  |  |  |  |  |  |  |  | COc1ccc2cc3[n+](cc2c1OC)CCc1cc2c(cc1-3)OCO2 [berberine] |  |  |  |  | 24 |  |
|  | > 200 | 25 | 12 | 24 |  |  |  | CCCCCCCCCCCC[n+]1c(-c2ccccc2)cc(-c2ccc(Br)cc2)cc1-c1ccccc1 [2b] | 26 |  |  |  |  |  |
|  |  |  |  |  |  |  |  | CCCCCCCCN=c1ccn(CCCCCCCCCCn2ccc(=NCCCCCCCC)cc2)cc1 [OCT, octenidine] |  |  |  |  | 2.93 (≈ 1.61 µg/mL) |  |
|  |  |  |  |  |  |  |  | N#CC(C#N)=NNc1ccc(OC(F)(F)F)cc1 [FCCP, carbonyl cyanide-4-(trifluoromethoxy)phenylhydrazone, reference compound] |  |  |  |  |  | approximately half |
